{
  "source": "the supplement of paper PMC9663587",
  "key": {"[1]": {"compound": "CCOc1cc2ncc(C#N)c(Nc3ccc(OCc4ccccn4)c(Cl)c3)c2cc1NC(=O)/C=C/CN(C)C [Neratinib/HKI272]", "experiment": "increase in dead-cell fraction, 72 h; higher = more death;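 further: breast cancer cell lines in 384-well plates, stained with Hoechst plus LIVE/DEAD far red dye and imaged, cells above an LDR intensity threshold counted dead, Hoechst-negative corpses included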"}, "[2]": {"compound": "CC(=O)c1c(C)c2cnc(Nc3ccc(N4CCNCC4)cn3)nc2n(C2CCCC2)c1=O", "experiment": "increase in dead-cell fraction, 72 h; higher = more death"}, "[3]": {"compound": "CCN1CCN(Cc2ccc(Nc3ncc(F)c(-c4cc(F)c5nc(C)n(C(C)C)c5c4)n3)nc2)CC1", "experiment": "increase in dead-cell fraction, 72 h; higher = more death"}, "[4]": {"compound": "CN1CC[C@H](c2c(O)cc(O)c3c(=O)cc(-c4ccccc4Cl)oc23)[C@H](O)C1 [Flavopiridol]", "experiment": "increase in dead-cell fraction, 72 h; higher = more death"}, "[5]": {"compound": "CN(C)C(=O)c1cc2cnc(Nc3ccc(N4CCNCC4)cn3)nc2n1C1CCCC1 [LEE011/Ribociclib]", "experiment": "increase in dead-cell fraction, 72 h; higher = more death"}, "[6]": {"compound": "CC(=O)c1c(C)c2cnc(Nc3ccc(N4CCN(CCOCCOCCOCCNC(=O)COc5cccc6c5C(=O)N(C5CCC(=O)NC5=O)C6=O)CC4)cn3)nc2n(C2CCCC2)c1=O [BSJ-03-123]", "experiment": "increase in dead-cell fraction, 72 h; higher = more death"}, "[7]": {"compound": "CCc1cnn2c(NCc3ccc[n+]([O-])c3)cc(N3CCCC[C@H]3CCO)nc12", "experiment": "increase in dead-cell fraction, 72 h; higher = more death"}, "[8]": {"compound": "CN(C)C/C=C/C(=O)Nc1ccc(C(=O)Nc2cccc(Nc3ncc(Cl)c(-c4c[nH]c5ccccc45)n3)c2)cc1 [THZ1]", "experiment": "increase in dead-cell fraction, 72 h; higher = more death"}, "[9]": {"compound": "CC(=O)Nc1cccc(-n2c(=O)n(C3CC3)c(=O)c3c(Nc4ccc(I)cc4F)n(C)c(=O)c(C)c32)c1"}, "[10]": {"compound": "CCC1=CN=CN=C1N2CCN(CC2)CC3=NC4=C(N3)C=C(C=C4)C(F)(F)F"}, "[11]": {"compound": "CN(C)C/C=C/C(=O)Nc1ccc(O[C@@H]2CCC[C@@H](Nc3ncc(Cl)c(-c4c[nH]c5ccccc45)n3)C2)cc1 [BSJ-01-175]"}, "[12]": {"compound": "CCN1CCN(Cc2ccc(Nc3ncc(F)c(-c4cc(F)c5nc(C)n(C(C)C)c5c4)n3)nc2)CC1"}, "[13]": {"compound": "COc1ccc2c(c1)[C@]1(C[C@H]1c1ccc3c(/C=C/c4ccc(CN5C[C@@H](C)O[C@@H](C)C5)cc4)n[nH]c3c1)C(=O)N2"}, "[14]": {"compound": "CNC(=O)c1cccc(-c2ccc3c(N4CCOC[C@@H]4C)nc(N4CCOC[C@@H]4C)nc3n2)c1 [AZD2014]"}, "[15]": {"compound": "NC(=O)Nc1cc(-c2cccc(F)c2)sc1C(=O)N[C@H]1CCCNC1 [AZD7762]"}, "[16]": {"compound": "CC(C)NC[C@@H](C(=O)N1CCN(c2ncnc3c2[C@H](C)C[C@H]3O)CC1)c1ccc(Cl)cc1 [Ipatasertib/GDC0068]"}, "[17]": {"compound": "O=C1NC(=O)[C@@H](c2cn3c4c(cccc24)CCC3)[C@@H]1c1c[nH]c2ccccc12 [Tivantinib/ARQ197]"}, "[18]": {"compound": "O=C(CCCCCCC(=O)Nc1ccccc1)NO [Vorinostat]"}, "[19]": {"compound": "C[C@@H]1COCCN1c1cc(C2([S@](C)(=N)=O)CC2)nc(-c2cc[nH]c3nccc2-3)n1 [AZD6738]"}},
  "data": [
    {"cell line": "CAL51", "values": [
      {"measurement": "increase in dead-cell fraction", "setting": "[1]; 0.0003162 µM", "value": 0.0033},
      {"measurement": "increase in dead-cell fraction", "setting": "[1]; 0.001 µM", "value": -0.0017},
      {"measurement": "increase in dead-cell fraction", "setting": "[1]; 0.003162 µM", "value": 0.0074},
      {"measurement": "increase in dead-cell fraction", "setting": "[1]; 0.01 µM", "value": 0.0041},
      {"measurement": "increase in dead-cell fraction", "setting": "[1]; 0.03162 µM", "value": 0.0026},
      {"measurement": "increase in dead-cell fraction", "setting": "[1]; 0.1 µM", "value": 0.0003},
      {"measurement": "increase in dead-cell fraction", "setting": "[1]; 0.3162 µM", "value": -0.0046},
      {"measurement": "increase in dead-cell fraction", "setting": "[1]; 1 µM", "value": -0.0094},
      {"measurement": "increase in dead-cell fraction", "setting": "[1]; 3.162 µM", "value": 0.0911},
      {"measurement": "increase in dead-cell fraction", "setting": "[2]; 0.0003162 µM", "value": -0.0042},
      {"measurement": "increase in dead-cell fraction", "setting": "[2]; 0.001 µM", "value": -0.0013},
      {"measurement": "increase in dead-cell fraction", "setting": "[2]; 0.003162 µM", "value": -0.0116},
      {"measurement": "increase in dead-cell fraction", "setting": "[2]; 0.01 µM", "value": -0.0114},
      {"measurement": "increase in dead-cell fraction", "setting": "[2]; 0.03162 µM", "value": -0.0305},
      {"measurement": "increase in dead-cell fraction", "setting": "[2]; 0.1 µM", "value": -0.0374},
      {"measurement": "increase in dead-cell fraction", "setting": "[2]; 0.3162 µM", "value": -0.0371},
      {"measurement": "increase in dead-cell fraction", "setting": "[2]; 1 µM", "value": -0.036},
      {"measurement": "increase in dead-cell fraction", "setting": "[2]; 3.162 µM", "value": -0.029},
      {"measurement": "increase in dead-cell fraction", "setting": "[3]; 0.001 µM", "value": -0.009},
      {"measurement": "increase in dead-cell fraction", "setting": "[3]; 0.003162 µM", "value": -0.0216},
      {"measurement": "increase in dead-cell fraction", "setting": "[3]; 0.01 µM", "value": -0.032},
      {"measurement": "increase in dead-cell fraction", "setting": "[3]; 0.03162 µM", "value": -0.0343},
      {"measurement": "increase in dead-cell fraction", "setting": "[3]; 0.1 µM", "value": -0.0329},
      {"measurement": "increase in dead-cell fraction", "setting": "[3]; 0.3162 µM", "value": -0.0295},
      {"measurement": "increase in dead-cell fraction", "setting": "[3]; 1 µM", "value": -0.0018},
      {"measurement": "increase in dead-cell fraction", "setting": "[3]; 3.162 µM", "value": 0.239},
      {"measurement": "increase in dead-cell fraction", "setting": "[3]; 10 µM", "value": 0.727},
      {"measurement": "increase in dead-cell fraction", "setting": "[4]; 0.0001 µM", "value": -0.0023},
      {"measurement": "increase in dead-cell fraction", "setting": "[4]; 0.0003162 µM", "value": 0.0009},
      {"measurement": "increase in dead-cell fraction", "setting": "[4]; 0.001 µM", "value": -0.0005},
      {"measurement": "increase in dead-cell fraction", "setting": "[4]; 0.003162 µM", "value": 0.004},
      {"measurement": "increase in dead-cell fraction", "setting": "[4]; 0.01 µM", "value": 0.0023},
      {"measurement": "increase in dead-cell fraction", "setting": "[4]; 0.03162 µM", "value": 0.006},
      {"measurement": "increase in dead-cell fraction", "setting": "[4]; 0.1 µM", "value": 0.011},
      {"measurement": "increase in dead-cell fraction", "setting": "[4]; 0.3162 µM", "value": 0.068},
      {"measurement": "increase in dead-cell fraction", "setting": "[4]; 1 µM", "value": 0.234},
      {"measurement": "increase in dead-cell fraction", "setting": "[5]; 0.001 µM", "value": -0.0032},
      {"measurement": "increase in dead-cell fraction", "setting": "[5]; 0.003162 µM", "value": -0.0038},
      {"measurement": "increase in dead-cell fraction", "setting": "[5]; 0.01 µM", "value": -0.0003},
      {"measurement": "increase in dead-cell fraction", "setting": "[5]; 0.03162 µM", "value": 0.0052},
      {"measurement": "increase in dead-cell fraction", "setting": "[5]; 0.1 µM", "value": 0.0083},
      {"measurement": "increase in dead-cell fraction", "setting": "[5]; 0.3162 µM", "value": 0.0065},
      {"measurement": "increase in dead-cell fraction", "setting": "[5]; 1 µM", "value": 0.0053},
      {"measurement": "increase in dead-cell fraction", "setting": "[5]; 3.162 µM", "value": 0.0086},
      {"measurement": "increase in dead-cell fraction", "setting": "[5]; 10 µM", "value": 0.0229},
      {"measurement": "increase in dead-cell fraction", "setting": "[6]; 0.001 µM", "value": -0.0039},
      {"measurement": "increase in dead-cell fraction", "setting": "[6]; 0.003162 µM", "value": -0.0056},
      {"measurement": "increase in dead-cell fraction", "setting": "[6]; 0.01 µM", "value": -0.004},
      {"measurement": "increase in dead-cell fraction", "setting": "[6]; 0.03162 µM", "value": -0.0021},
      {"measurement": "increase in dead-cell fraction", "setting": "[6]; 0.1 µM", "value": -0.0017},
      {"measurement": "increase in dead-cell fraction", "setting": "[6]; 0.3162 µM", "value": -0.0037},
      {"measurement": "increase in dead-cell fraction", "setting": "[6]; 1 µM", "value": 0.0033},
      {"measurement": "increase in dead-cell fraction", "setting": "[6]; 3.162 µM", "value": 0.0021},
      {"measurement": "increase in dead-cell fraction", "setting": "[6]; 10 µM", "value": 0.128},
      {"measurement": "increase in dead-cell fraction", "setting": "[7]; 0.0001 µM", "value": -0.0015},
      {"measurement": "increase in dead-cell fraction", "setting": "[7]; 0.0003162 µM", "value": -0.0015},
      {"measurement": "increase in dead-cell fraction", "setting": "[7]; 0.001 µM", "value": 0.0029},
      {"measurement": "increase in dead-cell fraction", "setting": "[7]; 0.003162 µM", "value": 0.0026},
      {"measurement": "increase in dead-cell fraction", "setting": "[7]; 0.01 µM", "value": -0.0001},
      {"measurement": "increase in dead-cell fraction", "setting": "[7]; 0.03162 µM", "value": 0.437},
      {"measurement": "increase in dead-cell fraction", "setting": "[7]; 0.1 µM", "value": 0.584},
      {"measurement": "increase in dead-cell fraction", "setting": "[7]; 0.3162 µM", "value": 0.58},
      {"measurement": "increase in dead-cell fraction", "setting": "[7]; 1 µM", "value": 0.532},
      {"measurement": "increase in dead-cell fraction", "setting": "[8]; 0.0001 µM", "value": -0.0022},
      {"measurement": "increase in dead-cell fraction", "setting": "[8]; 0.0003162 µM", "value": -0.0006},
      {"measurement": "increase in dead-cell fraction", "setting": "[8]; 0.001 µM", "value": -0.0009},
      {"measurement": "increase in dead-cell fraction", "setting": "[8]; 0.003162 µM", "value": 0.0009},
      {"measurement": "increase in dead-cell fraction", "setting": "[8]; 0.01 µM", "value": 0.0002},
      {"measurement": "increase in dead-cell fraction", "setting": "[8]; 0.03162 µM", "value": 0.0038},
      {"measurement": "increase in dead-cell fraction", "setting": "[8]; 0.1 µM", "value": 0.0149},
      {"measurement": "increase in dead-cell fraction", "setting": "[8]; 0.3162 µM", "value": 0.046},
      {"measurement": "increase in dead-cell fraction", "setting": "[8]; 1 µM", "value": 0.117},
      {"measurement": "GR50, 72 h", "setting": "[9]", "value": "> 1", "unit": "µM"},
      {"measurement": "GR50, 72 h", "setting": "[10]", "value": "> 10", "unit": "µM"},
      {"measurement": "GR50, 72 h", "setting": "[11]", "value": 0.432, "unit": "µM"},
      {"measurement": "GR50, 72 h", "setting": "[12]", "value": 0.113, "unit": "µM"},
      {"measurement": "GR50, 72 h", "setting": "[13]", "value": 0.00556, "unit": "µM"},
      {"measurement": "GR50, 72 h", "setting": "[14]", "value": 0.163, "unit": "µM"},
      {"measurement": "GR50, 72 h", "setting": "[15]", "value": 0.0446, "unit": "µM"},
      {"measurement": "GR50, 72 h", "setting": "[16]", "value": 2.98, "unit": "µM"},
      {"measurement": "GR50, 72 h", "setting": "[17]", "value": 0.588, "unit": "µM"},
      {"measurement": "GR50, 72 h", "setting": "[18]", "value": 1.83, "unit": "µM"},
      {"measurement": "GR50, 72 h", "setting": "[19]", "value": 5.34, "unit": "µM"}
    ]}
  ]
}
